Values of other authors as cited in patent US6387950B2, “Treatment of tumors with RARα selective retinoid compounds in combination with other anti-tumor agents” (Allergan Sales, Inc., priority 2000, dated 2002).

Key:
[1] = test system: carcinoma cell lines; conditions: in some of the cell lines; Fanjul et al. 1996; cited from earlier work
[2] = target: T1, RARγ receptors (Homo sapiens, UniProt P13631); conditions: Fanjul et al. 1996; cited from earlier work
T1 sequence (P13631 1-454): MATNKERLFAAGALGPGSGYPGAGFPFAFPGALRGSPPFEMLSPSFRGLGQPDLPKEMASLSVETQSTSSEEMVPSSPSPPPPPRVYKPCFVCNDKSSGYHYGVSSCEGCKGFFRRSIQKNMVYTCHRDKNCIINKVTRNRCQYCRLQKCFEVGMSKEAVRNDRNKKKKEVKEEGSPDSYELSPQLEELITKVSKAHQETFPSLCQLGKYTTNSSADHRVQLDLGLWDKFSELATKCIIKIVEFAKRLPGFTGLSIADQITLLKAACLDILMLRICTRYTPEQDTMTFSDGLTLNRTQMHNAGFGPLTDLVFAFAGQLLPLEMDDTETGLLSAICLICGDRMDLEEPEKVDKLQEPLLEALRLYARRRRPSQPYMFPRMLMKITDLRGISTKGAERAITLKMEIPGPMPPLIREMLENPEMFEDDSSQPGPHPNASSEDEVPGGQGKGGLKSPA

[3] = test system: MCF-7 human carcinoma cell lines; conditions: Kurbacher et al. 1996; cited from earlier work
[4] = test system: MDA-MB 231 human carcinoma cell lines; conditions: Kurbacher et al. 1996; cited from earlier work
[5] = test system: MCF-7 human breast cancer lines; conditions: Toma et al. 1997; cited from earlier work

In the case of `COC(=O)c1ccc(/C(C)=C/c2ccc3c(c2)C(C)(C)CCC3(C)C)cc1` [SRI 11220], the “anti-proliferative activity in combination with interferon” value [1] is given as “synergistic” and the receptor activity [2] is given as “RARγ agonist”.

In the case of `O=C1O[C@H]([C@@H](O)CO)C(O)=C1O` [vitamin C], the “action with certain chemotherapeutic anti-tumor agents” value [3] is given as “synergistic action” and the “action with certain chemotherapeutic anti-tumor agents” value [4] is given as “synergistic action”.

For `CC1=C(/C=C/C(C)=C/C=C/C(C)=C/C(=O)O)C(C)(C)CCC1` [all trans retinoic acid], the “effect in combination with tamoxifen (TAM)” value [5] is given as “synergistic effect” and the “effect in combination with α interferon (α IFN)” value [5] is given as “synergistic effects”.
